Experimental data from ChEMBL document CHEMBL1133204, “Synthesis and biological activities of an alpha-methyl and a beta-methyl carbapenem and the corresponding unsubstituted compound” (Bioorg Med Chem Lett, 2000).

Tests used:
[1] = Half life of hydrolysis of compound at pH 7.4, 37 degree C; format: ADME; details: buffer
Beta-lactamase = Beta-lactamase (Enterobacter cloacae, UniProt P05364); test: Beta-Lactamase inhibition activity after 15 min of pre-incubation with the enzyme isolated from Enterobacter cloacae
Chain of Beta-lactamase (P05364 whole entry): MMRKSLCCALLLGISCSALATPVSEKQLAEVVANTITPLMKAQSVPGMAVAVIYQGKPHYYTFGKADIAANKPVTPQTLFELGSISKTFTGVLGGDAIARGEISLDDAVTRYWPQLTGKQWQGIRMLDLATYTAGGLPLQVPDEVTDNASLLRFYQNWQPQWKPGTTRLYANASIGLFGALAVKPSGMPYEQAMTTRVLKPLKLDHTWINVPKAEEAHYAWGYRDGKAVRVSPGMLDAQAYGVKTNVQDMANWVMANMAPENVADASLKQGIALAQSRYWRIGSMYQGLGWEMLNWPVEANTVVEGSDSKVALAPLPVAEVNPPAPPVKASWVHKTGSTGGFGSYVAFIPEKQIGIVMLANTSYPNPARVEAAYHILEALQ

Beta-lactamase TEM = Beta-lactamase TEM (Escherichia coli, UniProt P62593); test: Beta-Lactamase inhibition activity after 15 min of pre-incubation with the enzyme isolated from Escherichia coli 205 TEM
Chain of Beta-lactamase TEM (P62593 whole entry): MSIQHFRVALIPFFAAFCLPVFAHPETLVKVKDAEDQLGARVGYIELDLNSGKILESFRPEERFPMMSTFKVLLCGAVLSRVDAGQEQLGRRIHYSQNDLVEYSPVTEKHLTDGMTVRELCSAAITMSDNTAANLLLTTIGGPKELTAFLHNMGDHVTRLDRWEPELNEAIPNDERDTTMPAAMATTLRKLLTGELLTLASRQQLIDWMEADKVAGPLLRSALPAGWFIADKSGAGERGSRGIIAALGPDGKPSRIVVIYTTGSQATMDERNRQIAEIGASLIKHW

Enterococcus sp. = test: Minimum inhibitory concentration against Enterobacter coccus in DIFCO nutrient agar after 18 hr incubation period at 37 degree C; format: functional
Escherichia coli [2] = test: Minimum inhibitory concentration against Escherichia coli 1103 in DIFCO nutrient agar after 18 hr incubation period at 37 degree C; format: functional
Escherichia coli [3] = test: Minimum inhibitory concentration against Escherichia coli 205 TEM in DIFCO nutrient agar after 18 hr incubation period at 37 degree C; format: functional
Enterobacter cloacae = test: Minimum inhibitory concentration against Enterobacter cloacae in DIFCO nutrient agar after 18 h incubation period at 37 degree C; format: functional
Pseudomonas aeruginosa [4] = test: Minimum inhibitory concentration against Pseudomonas aeruginosa in DIFCO nutrient agar after 18 hr incubation period at 37 degree C; format: functional
Pseudomonas aeruginosa [5] = test: Minimum inhibitory concentration against Pseudomonas aeruginosa. res in DIFCO nutrient agar after 18 hr incubation period at 37 degree C; format: functional
Staphylococcus aureus [6] = test: Minimum inhibitory concentration against Staphylococcus aureus 1104 in DIFCO nutrient agar after 18 hr incubation period at 37 degree C; format: functional
Staphylococcus aureus [7] = test: Minimum inhibitory concentration against Staphylococcus aureus in DIFCO nutrient agar after 18 hr incubation period at 37 degree C; format: functional
Staphylococcus aureus [8] = test: Minimum inhibitory concentration against Staph 25768 in DIFCO nutrient agar after 18 hr incubation period at 37 degree C; format: functional
[9] = Minimum inhibitory concentration against S. Innsbruck in DIFCO nutrient agar after 18 h incubation period at 37 degree C
Staphylococcus aureus [10] = test: Minimum inhibitory concentration against Staphylococcus aureus res in DIFCO nutrient agar after 18 hr incubation period at 37 degree C; format: functional

SMILES: COC1=C(C(=O)[O-])N2C(=O)[C@H]([C@@H](C)O)C2[C@@H]1C.[K+] (some centres undefined)
- half-life [1]: 3.25 h
- IC50 (Beta-lactamase): 82 nM
- IC50 (Beta-lactamase TEM; read-out: IC50): 230 nM
- MIC (Enterococcus sp.): > 50 µg/mL
- MIC (Escherichia coli [2]): 10 µg/mL
- MIC (Escherichia coli [3]): 5 µg/mL
- MIC (Enterobacter cloacae): 25 µg/mL
- MIC (Pseudomonas aeruginosa [4]): > 50 µg/mL
- MIC (Pseudomonas aeruginosa [5]): > 50 µg/mL
- MIC (Staphylococcus aureus [6]): < 0.5 µg/mL
- MIC (Staphylococcus aureus [7]): 1 µg/mL
- MIC (Staphylococcus aureus [8]): 5 µg/mL
- MIC [9]: > 50 µg/mL

SMILES: COC1=C(C(=O)[O-])N2C(=O)[C@H]([C@@H](C)O)[C@H]2C1.[K+]
- half-life [1]: 5.75 h
- IC50 (Beta-lactamase): 510 nM
- IC50 (Beta-lactamase TEM): 0.00034 M l-1
- MIC (Enterococcus sp.): 50 µg/mL
- MIC (Escherichia coli [2]): 2 µg/mL
- MIC (Escherichia coli [3]): 1 µg/mL
- MIC (Enterobacter cloacae): 5 µg/mL
- MIC (Pseudomonas aeruginosa [4]): > 50 µg/mL
- MIC (Pseudomonas aeruginosa [5]): > 50 µg/mL
- MIC (Staphylococcus aureus [6]): 1 µg/mL
- MIC (Staphylococcus aureus [10]): 2 µg/mL
- MIC (Staphylococcus aureus [8]): 5 µg/mL
- MIC [9]: 25 µg/mL

SMILES: COC1=C(C(=O)[O-])N2C(=O)[C@H]([C@@H](C)O)C2[C@H]1C.[K+] (some centres undefined)
- half-life [1]: 72 h
- IC50 (Beta-lactamase): 2100 nM
- IC50 (Beta-lactamase TEM; read-out: IC50): 130 nM
- MIC (Enterococcus sp.): > 50 µg/mL
- MIC (Escherichia coli [2]): 1 µg/mL
- MIC (Escherichia coli [3]): 0.5 µg/mL
- MIC (Enterobacter cloacae): 5 µg/mL
- MIC (Pseudomonas aeruginosa [4]): > 50 µg/mL
- MIC (Pseudomonas aeruginosa [5]): > 50 µg/mL
- MIC (Staphylococcus aureus [6]): 25 µg/mL
- MIC (Staphylococcus aureus [10]): 25 µg/mL
- MIC (Staphylococcus aureus [8]): > 50 µg/mL
- MIC [9]: > 50 µg/mL
